Results on 30 compounds are retold here after ChEMBL document CHEMBL3988442, “University of Dundee, Small-Polar-MMV Screening Library” (2021).

Structures are written as SMILES.

Assay [1] can be described thus: microbe, parasite or virus in culture. Conditions: Mycobacterium tuberculosis, 96 h, read-out: pIC50 (converted).
Assay [2] in a line: microbe, parasite or virus in culture. The note with it: Mycobacterium tuberculosis, 72 h, read-out: pIC50 (converted).

For `COc1cc(Oc2cnc3ccccc3n2)ccc1CN1CCCC1`, the IC50 in assay [1] is 13 µM; in assay [2], 9.42 µM.
Regarding `COc1cccc(CCC2CCCN(C(=O)c3ccc(OC)o3)C2)c1` (stereo not given), the IC50 is 23 µM in assay [1] and 27.7 µM in assay [2].
For the compound `Fc1ccc(Cn2ncc3c2CN(c2noc(C4CC4)n2)C3)cc1`, the IC50 was 26.5 µM in assay [1] and greater than 50.1 µM in assay [2].
In the case of `COc1coc(CN2CCCC(CCc3ccc(F)c(F)c3)C2)cc1=O` (stereo not given), the IC50 in assay [1] is 14.3 µM; in assay [2], greater than 50.1 µM.
Take `Cc1cccc(CN2C[C@H]3CC[C@@H]2CN(Cc2[nH]cnc2C)C3)n1`: the IC50 in assay [1] and in assay [2] was greater than 50.1 µM throughout.
Turning to `O=C(c1cccs1)N1CC(Oc2ccccc2Cl)C1`, the IC50 was 42.8 µM in assay [1] and 26.7 µM in assay [2].
The like results for `Cc1cc(N(C)Cc2ccsc2)n2nc(C)c(C)c2n1` were, in that order, 12.6 µM and 12.6 µM.
The like results for `Cc1cccc(CN2CCCC3(CCN(C4CCSCC4)C3)C2=O)c1` (stereo not given) were, in that order, 15.8 µM and 10 µM.
On to `C=Cc1ccc(C(=O)N2CCCC(Nc3ccc(F)c(F)c3)C2)cc1` (stereo not given), for which the IC50 was 40.8 µM in assay [1] and greater than 50.1 µM in assay [2].
Regarding `Cc1nc(-c2cccc(N3CCC(N4CCCC4)CC3)c2)cs1`, the results for the IC50 in assay [1] and in assay [2] were 24.2 µM and greater than 50.1 µM, respectively.
As to `CS(=O)(=O)N1CCc2[nH]cnc2C12CCN(C(=O)c1ccccc1)CC2`, the IC50 in assay [1] and in assay [2] was greater than 50.1 µM in each case.
For `Cc1cccnc1CN1CCOC(Cc2cccc3ccccc23)C1` (stereo not given), the IC50 in assay [1] and in assay [2] was greater than 50.1 µM in each case.
For `COc1ccc(F)c(CN2CCCC3(CCN(C4CCOCC4)C3)C2)c1` (stereo not given), the IC50 in assay [1] is 25.1 µM; in assay [2], 16.7 µM.
In the case of `CC(C)N(CCNc1nc(C2CCCC2)nc2c1cnn2C)C(C)C`, the IC50 in assay [1] was 18.7 µM; in assay [2], 20.6 µM.
In the same order, the values of `Cc1ccsc1[C@@H]1CCN(C(=O)CCOc2ccccc2)C[C@H]1O` are greater than 50.1 µM and greater than 50.1 µM.
As for `COc1cc(-c2cccc3c2OC(CN)C3)cc(OC)c1OC` (stereo not given), the IC50 in assay [1] and in assay [2] was 43.9 µM in each case.
Take `Cc1nc(N)cc(N2CCCC(COc3cccc(F)c3)C2)n1` (stereo not given): the IC50 in assay [1] was 27.9 µM; in assay [2] it was 46 µM.
Consider `COc1coc(CN2CCCC(CCc3ccccc3F)C2)cc1=O` (stereo not given), for which the IC50 in assay [1] is 13.3 µM; in assay [2] it was 47.3 µM.
As for `COc1ccc([C@@H]2C[C@H](NC(C)=O)C[C@H](Cc3ccccc3)O2)cn1`, the IC50 in assay [1] is 28.3 µM; in assay [2], greater than 50.1 µM.
In the same order, the values of `CCc1ccc(C(=O)N2CCN(Cc3ccc(F)cc3)CC2)s1` are 28.4 µM and 19.9 µM.
In the same order, the values of `Cc1ccc(CN2CCN(C(=O)c3ccc(Br)o3)CC2)cc1` are 37.2 µM and 30.4 µM.
The like results for `COc1ccc(-c2nc(CN(C)Cc3nncn3C)c(C)o2)c(C)c1C` were, in that order, 10.1 µM and 42.9 µM.
With `Cc1ccccc1N1CCN(c2cc(N(C)C)ncn2)C(C)C1` (stereo not given), the IC50 in assay [1] and in assay [2] was greater than 50.1 µM throughout.
With `CCNc1ccnc(N2Cc3cnn(Cc4ccc(F)cc4)c3C2)n1`, the IC50 in assay [1] is 27.4 µM; in assay [2] it was greater than 50.1 µM.
The like results for `CCNc1ncc(C(=O)N2CCC(c3ccccc3C(=O)O)C2)cn1` (stereo not given) were, in that order, greater than 50.1 µM and greater than 50.1 µM.
Regarding `CCn1cncc1CNc1ccc(-c2nc(CC(C)C)no2)cn1`, the results for the IC50 in assay [1] and in assay [2] were 5.92 µM and greater than 50.1 µM, respectively.
In the same order, the values of `Cc1ccc2nc(C3CCCN3Cc3nnc(C)s3)[nH]c2c1` (stereo not given) are greater than 50.1 µM and greater than 50.1 µM.
In the case of `Cc1nc(O)cc(CCNC(=O)C2CC(=O)N(CC(C)C)C2)n1` (stereo not given), the IC50 in assay [1] and in assay [2] was greater than 50.1 µM each time.
In the case of `Cc1cc(=O)[nH]c(SC(C)C(=O)N2CCC(NS(C)(=O)=O)CC2)n1` (stereo not given), the IC50 in assay [1] and in assay [2] was greater than 50.1 µM in each case.
`CC(C)c1cc(CN2CCNCC2)no1`: the IC50 in assay [1] was greater than 50.1 µM; in assay [2], 32.6 µM.
